Laboratory results published in patent US20250163104A1, “MACROCYCLIC IMMUNOMODULATORS” (priority 2021, published 2025).
*1 amine or outer side, *2 acyl side, *3 side chain or, on linkers, in order; H or OH if unused. Where a SMILES comes first, the peptide text is derived from it. Bridges are numbered along the chain shown (N, C = ends). [ ]: non-standard residue; d: D form. The star is where a group is joined. ξ: configuration not given here. Bip(3'-COOH) = N[C@@H](Cc1ccc(-c2cccc(C(=O)O)c2)cc1)C(=O)O; Phe(4-COOH) = N[C@@H](Cc1ccc(C(=O)O)cc1)C(=O)O; Phe(2-CF3) = N[C@@H](Cc1ccccc1C(F)(F)F)C(=O)O; X5 = O=C([C@H](Cc1ccc2ncccc2c1)N[*:1])[*:2]; Bip = N[C@@H](Cc1ccc(-c2ccccc2)cc1)C(=O)O; Phe(3-Me) = Cc1cccc(C[C@H](N)C(=O)O)c1; 3Pal = N[C@@H](Cc1cccnc1)C(=O)O; 4Pal = N[C@@H](Cc1ccncc1)C(=O)O; Cha = N[C@@H](CC1CCCCC1)C(=O)O; Cit = NC(=O)NCCC[C@H](N)C(=O)O; Ile(3ξ) = CCC(C)[C@H](N)C(=O)O; dNle = CCCC[C@@H](N)C(=O)O; Carboxymethyl = O=C(O)C*; Orn = NCCC[C@H](N)C(=O)O; Pra = C#CC[C@H](N)C(=O)O; Dab = NCC[C@H](N)C(=O)O; Dap = NC[C@H](N)C(=O)O; Piv = CC(C)(C)C(=O)*

biological target: T1, human PD-1 / PD-L1-Ig binding on Jurkat cell line over-expressing human PD-1 (Jurkat-PD-1) (Homo sapiens, UniProt Q15116); assay: Jurkat-PD-1 Cell Binding High-Content Screening Assay (CBA); format: cell-based; settings: Jurkat HPD1_PDL1 IC50, Jurkat-PD-1 cells, PE-labeled PD-L1-Ig 20 nM final
T1 construct: expressed in transfected cells; host or cells: Jurkat
T1 sequence (Q15116 25-288): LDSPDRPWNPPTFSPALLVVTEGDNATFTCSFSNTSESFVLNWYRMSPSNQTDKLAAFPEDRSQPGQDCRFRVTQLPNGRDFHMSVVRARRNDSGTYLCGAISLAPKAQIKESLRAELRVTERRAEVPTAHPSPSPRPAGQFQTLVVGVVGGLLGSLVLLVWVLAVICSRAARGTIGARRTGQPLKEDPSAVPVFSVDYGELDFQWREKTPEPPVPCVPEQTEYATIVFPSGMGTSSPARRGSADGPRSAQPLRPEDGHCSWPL
Outline: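 Compounds were preincubated with Jurkat-hPD-1 cells in DMEM plus 10% fetal calf serum for 2 h at 37° C. Phycoerythrin-labeled PD-L1-Ig (20 nM final) was then added for 1 hour. Cells were fixed in 4% paraformaldehyde with Hoechst 33342, and bound fluorescence was quantified by high-content imaging.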

Structure (SMILES) | IC50 [µM]
CC(C)C[C@H]1NC(=O)[C@H](CCCN)NC(=O)[C@H](CCC(=O)O)NC(=O)[C@H](Cc2ccc(-c3ccccc3)cc2)NC(=O)[C@H](C(C)C)NC(=O)[C@H](Cc2c[nH]c3ccccc23)NC(=O)[C@H](CC(=O)O)NC(=O)[C@H](Cc2ccc(OCC(=O)O)cc2)NC(=O)[C@H](Cc2ccncc2)NC(=O)CSC[C@@H](C(=O)N[C@@H](C)C(N)=O)NC(=O)[C@H]([C@@H](C)O)NC(=O)[C@H](C(C)C)NC(=O)[C@H](CC2CCCCC2)NC(=O)[C@H](Cc2c[nH]cn2)NC1=O [Compound 1609] | 0.0153

same assay, conditions: Jurkat-PD-1 cells, PE-labeled PD-L1-Ig 20 nM final; read-out: Jurkat HPD1_PDL1 IC50

Structure (SMILES) | IC50 [µM]
CC(C)C[C@H]1NC(=O)[C@H](CCCN)NC(=O)[C@H](C(C)C)NC(=O)[C@H](Cc2ccc(-c3ccccc3)cc2)NC(=O)[C@H](C(C)C)NC(=O)[C@H](Cc2c[nH]c3ccccc23)NC(=O)[C@H](CC(=O)O)NC(=O)[C@H](Cc2ccc(O)cc2)NC(=O)[C@H](CN)NC(=O)CSC[C@@H](C(=O)N[C@@H](C)C(N)=O)NC(=O)[C@H]([C@@H](C)O)NC(=O)[C@H](C(C)C)NC(=O)[C@H](CC2CCCCC2)NC(=O)[C@H](CCN)NC1=O [Compound 1172] | 0.0064
CC(C)C[C@H]1NC(=O)[C@H](CCCN)NC(=O)[C@H](CCCNC(N)=O)NC(=O)[C@H](Cc2ccc(-c3ccccc3)cc2)NC(=O)[C@H](C(C)C)NC(=O)[C@H](Cc2c[nH]c3ccccc23)NC(=O)[C@H](CC(=O)O)NC(=O)[C@H](Cc2ccc(O)cc2)NC(=O)[C@H](Cc2ccccc2)NC(=O)CSC[C@@H](C(=O)N[C@@H](C)C(N)=O)NC(=O)[C@H]([C@@H](C)O)NC(=O)[C@H](C(C)C)NC(=O)[C@H](CC2CCCCC2)NC(=O)[C@H](CCCNC(=N)N)NC1=O [Compound 1156] ({CH2CO}-FYDWV[Bip][Cit][Orn][dL]R[Cha]VTCA-NH2; thioether N-14) | 0.0207
CC(C)C[C@H]1NC(=O)[C@H](CCCN)NC(=O)[C@H](CCCNC(N)=O)NC(=O)[C@H](Cc2ccc(-c3ccccc3)cc2)NC(=O)[C@H](C(C)C)NC(=O)[C@H](Cc2c[nH]c3ccccc23)NC(=O)[C@H](CC(=O)O)NC(=O)[C@H](Cc2ccc(OCC(=O)O)cc2)NC(=O)[C@H](CN)NC(=O)CSC[C@@H](C(=O)N[C@@H](C)C(N)=O)NC(=O)[C@H]([C@@H](C)O)NC(=O)[C@H](C(C)C)NC(=O)[C@H](CC2CCCCC2)NC(=O)[C@H](CCN)NC1=O [Compound 1308] ({CH2CO}-[Dap]Y(Carboxymethyl)DWV[Bip][Cit][Orn][dL][Dab][Cha]VTCA-NH2; thioether N-14) | 0.0126
C#CC[C@H](NC(=O)[C@H](CCN)NC(=O)[C@@H]1CSCC(=O)N[C@@H](CN)C(=O)N[C@@H](Cc2ccc(OCC(=O)O)cc2)C(=O)N[C@@H](CC(=O)O)C(=O)N[C@@H](Cc2cccc(C)c2)C(=O)N[C@@H](Cc2ccc(C(=O)O)cc2)C(=O)N[C@@H](Cc2ccc(-c3ccccc3)cc2)C(=O)N[C@@H](Cc2ccc(C(=O)O)cc2)C(=O)N[C@@H](CCCN)C(=O)N[C@H](CC(C)C)C(=O)N[C@@H](CCN)C(=O)N[C@@H](CC2CCCCC2)C(=O)N[C@@H](C(C)C)C(=O)N[C@@H](CCC(=O)O)C(=O)N1)C(=O)O [Compound 1825] ({CH2CO}-[Dap]Y(Carboxymethyl)D[Phe(3-Me)][Phe(4-COOH)][Bip][Phe(4-COOH)][Orn][dL][Dab][Cha]VEC[Dab][Pra]-OH; thioether N-14) | 0.182
Cc1cccc(C[C@@H]2NC(=O)[C@H](CC(=O)O)NC(=O)[C@H](Cc3ccc(OCC(=O)O)cc3)NC(=O)[C@H](CN)NC(=O)CSC[C@@H](C(=O)N[C@@H](CCN)C(N)=O)NC(=O)[C@H]([C@@H](C)O)NC(=O)[C@H](C(C)C)NC(=O)[C@H](CC3CCCCC3)NC(=O)[C@H](CCNC(=O)C(C)(C)C)NC(=O)[C@@H](CC(C)C)NC(=O)[C@H](CCN)NC(=O)[C@H](Cc3ccc(OCC(=O)O)cc3)NC(=O)[C@H](Cc3ccc(-c4ccccc4)cc3)NC(=O)[C@H](Cc3ccc(OCC(=O)O)cc3)NC2=O)c1 [Compound 2063] ({CH2CO}-[Dap]Y(Carboxymethyl)D[Phe(3-Me)]Y(Carboxymethyl)[Bip]Y(Carboxymethyl)[Dab][dL][Dab](Piv)[Cha]VTC[Dab]-NH2; thioether N-14) | 0.0162
Cc1cccc(C[C@@H]2NC(=O)[C@H](CC(=O)O)NC(=O)[C@H](Cc3ccc(OCC(=O)O)cc3)NC(=O)[C@H](CN)NC(=O)CSC[C@@H](C(=O)N[C@@H](C)C(N)=O)NC(=O)[C@H]([C@@H](C)O)NC(=O)[C@H](C(C)C)NC(=O)[C@H](CC3CCCCC3)NC(=O)[C@H](CCN)NC(=O)[C@@H](CC(C)C)NC(=O)[C@H](CCCN)NC(=O)[C@H](CCN)NC(=O)[C@H](Cc3ccc(-c4ccccc4)cc3)NC(=O)[C@H](C(C)C)NC2=O)c1 [Compound 1309] ({CH2CO}-[Dap]Y(Carboxymethyl)D[Phe(3-Me)]V[Bip][Dab][Orn][dL][Dab][Cha]VTCA-NH2; thioether N-14) | 0.0484
CC(C)C[C@@H]1NC(=O)[C@H](CCN)NC(=O)[C@@H](CC(C)C)NC(=O)[C@H](CCCN)NC(=O)[C@H](CCCNC(N)=O)NC(=O)[C@H](Cc2ccc(-c3ccccc3)cc2)NC(=O)[C@H](C(C)C)NC(=O)[C@H](Cc2c[nH]c3ccccc23)NC(=O)[C@H](CC(=O)O)NC(=O)[C@H](Cc2ccc(O)cc2)NC(=O)[C@H](Cc2cccnc2)NC(=O)CSC[C@@H](C(=O)N[C@@H](C)C(N)=O)NC(=O)[C@H]([C@@H](C)O)NC(=O)[C@H](C(C)C)NC1=O [Compound 1041] ({CH2CO}-[3Pal]YDWV[Bip][Cit][Orn][dL][Dab]LVTCA-NH2; thioether N-14) | 0.0424
CC(C)C[C@@H]1NC(=O)[C@H](Cc2c[nH]c3ccccc23)NC(=O)[C@H](CC(=O)O)NC(=O)[C@H](Cc2ccc(C(=O)O)cc2)NC(=O)[C@H](Cc2ccc(OCC(=O)O)cc2)NC(=O)CSC[C@@H](C(=O)NCC(N)=O)NC(=O)[C@H](CO)NC(=O)[C@H](C(C)C)NC(=O)[C@H](CC2CCCCC2)NC(=O)[C@H](CCN)NC(=O)[C@@H](CC(C)C)NC(=O)[C@H](CCCN)NC(=O)[C@H](C(C)C)NC(=O)[C@H](Cc2ccc(-c3ccccc3)cc2)NC1=O [Compound 1405] ({CH2CO}-Y(Carboxymethyl)[Phe(4-COOH)]DWL[Bip]V[Orn][dL][Dab][Cha]VSCG-NH2; thioether N-14) | 0.0074
CC(C)C[C@H]1NC(=O)[C@H](CCCN)NC(=O)[C@H](CCC(=O)O)NC(=O)[C@H](Cc2ccc(-c3ccccc3)cc2)NC(=O)[C@H](C(C)C)NC(=O)[C@H](Cc2c[nH]c3ccccc23)NC(=O)[C@H](CC(=O)O)NC(=O)[C@H](Cc2ccc3ncccc3c2)NC(=O)[C@H](Cc2ccc(OCC(=O)O)cc2)NC(=O)CSC[C@@H](C(=O)N[C@@H](C)C(N)=O)NC(=O)[C@H]([C@@H](C)O)NC(=O)[C@H](C(C)C)NC(=O)[C@H](CC2CCCCC2)NC(=O)[C@H](CCN)NC1=O [Compound 2178] | 0.0527
CCC(C)[C@@H]1NC(=O)[C@H](Cc2ccc(-c3ccccc3)cc2)NC(=O)[C@H](C(C)C)NC(=O)[C@H](Cc2c[nH]c3ccccc23)NC(=O)[C@H](CC(N)=O)NC(=O)[C@H](Cc2ccc(O)cc2)NC(=O)[C@H](CN)NC(=O)CSC[C@@H](C(=O)N[C@@H](C)C(N)=O)NC(=O)[C@H]([C@@H](C)O)NC(=O)[C@H](C(C)C)NC(=O)[C@H](CC(C)C)NC(=O)[C@H](CCN)NC(=O)[C@@H](CC(C)C)NC(=O)[C@H](CCCCN)NC1=O (stereo partly drawn) [Compound 1091] ({CH2CO}-[Dap]YNWV[Bip][Ile(3ξ)]K[dL][Dab]LVTCA-NH2; thioether N-14) | 0.0218
CCCC[C@H]1NC(=O)[C@H](CCCN)NC(=O)[C@H](CCC(=O)O)NC(=O)[C@H](Cc2ccc(-c3ccccc3)cc2)NC(=O)[C@H](C(C)C)NC(=O)[C@H](Cc2c[nH]c3ccccc23)NC(=O)[C@H](CC(=O)O)NC(=O)[C@H](Cc2ccc(O)cc2)NC(=O)[C@H](CC(N)=O)NC(=O)CSC[C@@H](C(=O)N[C@@H](C)C(N)=O)NC(=O)[C@H]([C@@H](C)O)NC(=O)[C@H](C(C)C)NC(=O)[C@H](CC2CCCCC2)NC(=O)[C@H](CCN)NC1=O [Compound 1453] ({CH2CO}-NYDWV[Bip]E[Orn][dNle][Dab][Cha]VTCA-NH2; thioether N-14) | 0.0097
CC(C)C[C@H]1NC(=O)[C@H](CCCN)NC(=O)[C@H](CCC(=O)O)NC(=O)[C@H](Cc2ccc(-c3ccccc3)cc2)NC(=O)[C@H](C(C)C)NC(=O)[C@H](Cc2c[nH]c3ccccc23)NC(=O)[C@H](CC(=O)O)NC(=O)[C@H](Cc2ccc(-c3cccc(C(=O)O)c3)cc2)NC(=O)[C@H](CC(N)=O)NC(=O)CSC[C@@H](C(=O)N[C@@H](C)C(N)=O)NC(=O)[C@H]([C@@H](C)O)NC(=O)[C@H](C(C)C)NC(=O)[C@H](CC2CCCCC2)NC(=O)[C@H](CCN)NC1=O [Compound 2160] ({CH2CO}-N[Bip(3'-COOH)]DWV[Bip]E[Orn][dL][Dab][Cha]VTCA-NH2; thioether N-14) | 0.0143
CC(C)C[C@H]1NC(=O)[C@H](CCCN)NC(=O)[C@H](CCC(=O)O)NC(=O)[C@H](Cc2ccc(-c3ccccc3)cc2)NC(=O)[C@H](C(C)C)NC(=O)[C@H](Cc2c[nH]c3ccccc23)NC(=O)[C@H](CC(=O)O)NC(=O)[C@H](Cc2ccc(OCC(=O)O)cc2)NC(=O)[C@H](CN)NC(=O)CSC[C@@H](C(=O)N[C@@H](C)C(N)=O)NC(=O)[C@H]([C@@H](C)O)NC(=O)[C@H](C(C)C)NC(=O)[C@H](Cc2ccccc2C(F)(F)F)NC(=O)[C@H](CCN)NC1=O [Compound 1486] ({CH2CO}-[Dap]Y(Carboxymethyl)DWV[Bip]E[Orn][dL][Dab][Phe(2-CF3)]VTCA-NH2; thioether N-14) | 0.0437
CC(C)C[C@H]1NC(=O)[C@H](CCCN)NC(=O)[C@H](CCC(=O)O)NC(=O)[C@H](Cc2ccc(-c3ccccc3)cc2)NC(=O)[C@H](C(C)C)NC(=O)[C@H](Cc2c[nH]c3ccccc23)NC(=O)[C@H](CC(=O)O)NC(=O)[C@H](Cc2ccc3ncccc3c2)NC(=O)[C@H](Cc2ccncc2)NC(=O)CSC[C@@H](C(=O)N[C@@H](C)C(N)=O)NC(=O)[C@H]([C@@H](C)O)NC(=O)[C@H](C(C)C)NC(=O)[C@H](CC2CCCCC2)NC(=O)[C@H](CCN)NC1=O [Compound 2179] ({CH2CO}-[4Pal][X5]DWV[Bip]E[Orn][dL][Dab][Cha]VTCA-NH2; thioether N-14) | 0.0651
